# Reference: patent US6026817A, “Method of treating the syndrome of coronary heart disease risk factors in humans” (priority 1998, dated 2000)
# Where “and” joins values, the source holds several entries; their conditions need not be identical. Equal values may be shown once.
# Assays:
# [1] = tested on: insulin resistant subject one; test: Example II: CHMMO given to an insulin resistant subject, blood values and liver enzymes; assay type: in vivo, human
# Procedure: A insulin resistant subject was given 17-cyclopropylmethyl-3-hydroxy-14-methoxy-8β-methylmorphinan-6-one hydrochloride (CEMMO), a pure opioid antagonist, in two daily doses of 18 mg each for the duration of one week, followed by 9 mg b.i.d. for another 4 weeks.
# κ opioid receptor = κ opioid receptor (Homo sapiens, UniProt P41145); test: biochemical; assay type: binding; conditions: prototype ligand EKC
# Description: (§1) For each receptor there is a prototype ligand. […] For the μ receptor the prototype ligand is DHM (dihydromorphine). For the δ receptor, the prototype ligand is DADLE (D-Ala+D-Leu-Enkephalin), and for the κ receptor, the prototype ligand is EKC (ethylketocyclazocine).
# μ opioid receptor = μ opioid receptor (Homo sapiens, UniProt P35372); test: biochemical; assay type: binding; conditions: prototype ligand DHM
# Description: as §1
# δ opioid receptor = δ opioid receptor (Homo sapiens, UniProt P41143); test: Receptor binding, displacement of prototype ligand DADLE
# Description: as §1
# [2] = tested on: μ, δ, and κ opiate receptors; test: Ratios of IC50 between opiate receptors; assay type: binding
# Description: as §1
# The relationship between the IC50 levels f or the μ, δ, κ opiate receptors may also be expressed in terms of a ratio.
# [3] = tested on: subject one with Impaired Glucose Tolerance and borderline Type 2 Diabetes; test: Example III: Nalmefene given to a subject with Impaired Glucose Tolerance, blood values, enzymes, weight, blood pressure; assay type: in vivo, human; design: HgbA1c Δ% (reduction) / C-Peptide Δ% (reduction) / Chol. Total Δ% (reduction) / LDL-C. Δ% (reduction) / TG Δ% (reduction) / FFA Δ% (reduction): concentration or dose not given beside the values
# [4] = tested on: women with polycystic ovary syndrome with Acanthosis Nigrians; conditions: four women, period of a few days; cited from earlier work
# body weight = conditions: in vivo; cited from earlier work
# [5] = tested on: patients with prolactin-producing tumors of the pituitary gland; conditions: cited from earlier work
# [6] = tested on: insulin resistant subject; test: Example I: metyrosine given to an insulin resistant subject, fasting blood values; assay type: in vivo, human
# Procedure: A insulin resistant subject was given 250 mg metyrosine twice daily.
# [7] = Day 41 vs Day 1 (after 5 weeks)
# [8] = Day 41 vs Day 1 (after 5 weeks), hydrochloride
# [9] = Day 41 vs Day 1 (after 5 weeks), listed as CEMMO, hydrochloride
# [10] = day 41 (after 5 weeks), 18 mg b.i.d. one week, then 9 mg b.i.d.
# [11] = day 41, 18 mg b.i.d. one week, then 9 mg b.i.d.
# [12] = 8 weeks of 250 mg twice daily vs initial
# [13] = initial levels, before treatment
# Chain of μ opioid receptor (P35372 whole entry): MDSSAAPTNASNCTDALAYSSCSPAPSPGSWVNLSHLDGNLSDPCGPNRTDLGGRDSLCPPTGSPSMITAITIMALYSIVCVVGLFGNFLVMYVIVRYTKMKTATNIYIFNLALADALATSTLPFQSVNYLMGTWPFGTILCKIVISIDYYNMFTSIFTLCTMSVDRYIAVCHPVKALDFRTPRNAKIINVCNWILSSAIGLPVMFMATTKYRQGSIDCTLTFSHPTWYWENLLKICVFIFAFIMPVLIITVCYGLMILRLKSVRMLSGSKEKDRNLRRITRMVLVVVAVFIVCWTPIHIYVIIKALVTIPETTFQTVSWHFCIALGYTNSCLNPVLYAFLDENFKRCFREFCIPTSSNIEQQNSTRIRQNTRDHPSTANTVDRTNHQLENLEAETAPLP
# Chain of κ opioid receptor (P41145 whole entry): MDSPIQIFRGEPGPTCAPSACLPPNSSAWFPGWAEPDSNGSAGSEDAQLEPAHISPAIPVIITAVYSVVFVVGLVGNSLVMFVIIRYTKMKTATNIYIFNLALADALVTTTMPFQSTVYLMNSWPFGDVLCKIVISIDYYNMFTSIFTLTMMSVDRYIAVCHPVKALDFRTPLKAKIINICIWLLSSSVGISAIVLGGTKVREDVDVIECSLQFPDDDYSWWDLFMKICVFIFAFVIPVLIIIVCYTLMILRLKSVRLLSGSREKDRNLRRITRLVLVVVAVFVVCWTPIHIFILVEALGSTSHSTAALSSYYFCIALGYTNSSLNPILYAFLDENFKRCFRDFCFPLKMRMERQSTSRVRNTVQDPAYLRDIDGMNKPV
# Chain of δ opioid receptor (P41143 whole entry): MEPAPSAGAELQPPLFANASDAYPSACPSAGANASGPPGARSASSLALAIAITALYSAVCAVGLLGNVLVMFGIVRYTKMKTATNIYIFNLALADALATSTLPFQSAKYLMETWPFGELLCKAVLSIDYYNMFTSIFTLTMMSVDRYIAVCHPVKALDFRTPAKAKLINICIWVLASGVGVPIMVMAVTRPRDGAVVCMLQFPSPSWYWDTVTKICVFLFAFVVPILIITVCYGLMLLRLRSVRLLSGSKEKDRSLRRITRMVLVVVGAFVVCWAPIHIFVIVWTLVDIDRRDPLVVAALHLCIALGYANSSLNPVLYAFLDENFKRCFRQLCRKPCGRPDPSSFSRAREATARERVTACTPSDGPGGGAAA
structure (smiles),measurement,setting,value
"CO[C@@]12[C@@H](C)CC(=O)C[C@@]13CCN(CC1CC1)[C@@H]2Cc1ccc(O)cc13.Cl [CHMMO, 17-cyclopropylmethyl-3-hydroxy-14-methoxy-8βmethylmorphinan-6-one hydrochloride]",Weight,[1]; Day 1,82 kg
same,Alk-phos,"[1]; Day 1, Table III",145 U/L
same,Weight,"[1]; Day 41, 9.0 mg b.i.d.",80 kg
same,Alk-phos,"[1]; Day 41, 9.0 mg b.i.d., Table III",126 U/L
same,ALT Δ%,[1]; Day 41 vs Day 1,31%
same,AST Δ%,[1]; Day 41 vs Day 1,30%
same,Alk-phos Δ%,[1]; Day 41 vs Day 1,6%
same,Glucose Δ%,[1]; Day 41 vs Day 1,14%
same,LD Δ%,[1]; Day 41 vs Day 1,27%
same,Weight Δ%,[1]; Day 41 vs Day 1,4.5%
same,Chol. Total Δ% (fall),[1]; [7],21%
same,LDL-C. Δ% (fall),[1]; [7],7%
same,TG Δ% (fall),[1]; [7],42%
same,FFA Δ% (fall),[1]; [8],22.7%
same,HDL-C. Δ% (increase),[1]; [8],16%
same,Insulin Δ% (fall),[1]; [8],50%
same,LDL/HDL Δ% (improvement),[1]; [8],22%
same,FFA Δ% (fall),[1]; [9],23%
same,HDL-C. Δ% (increase),[1]; [9],20%
same,Insulin Δ% (fall),[1]; [9],about 50%
same,LDL/HDL Δ% (improvement),[1]; [9],23%
same,Blood glucose,"[1]; after the first week, 18 mg twice daily, remained essentially at the same level",95 mg/dL
same,ALT,[1]; day 1,29 U/L
same,AST,[1]; day 1,23 U/L
same,CH. T (total cholesterol),[1]; day 1,234 mg/dL
same,FFA,[1]; day 1,0.75 mM/L
same,Gluc.,[1]; day 1,111 mg/dL
same,HDL,[1]; day 1,30 mg/dL
same,Insulin,[1]; day 1,14 μU/ml
same,LD,[1]; day 1,162 U/L
same,LDL,[1]; day 1,156 mg/dL
same,LDL/HDL,[1]; day 1,5.2
same,TG,[1]; day 1,229 mg/dL
same,Alk.-Phos,"[1]; day 1, Table II (unit not given)",145
same,ALT,[1]; day 41,20 U/L
same,AST,[1]; day 41,16 U/L
same,LD,[1]; day 41,117 U/L
same,CH. T (total cholesterol),[1]; [10],185 mg/dL
same,HDL,[1]; [10],36 mg/dL
same,Insulin,[1]; [10],6 μU/ml
same,LDL,[1]; [10],145 mg/dL
same,TG,[1]; [10],133 mg/dL
same,LDL/HDL,"[1]; day 41 (after 5 weeks), 18 mg b.i.d. one week, then 9 mg b.i.d., hydrochloride",4.0 and 4.03
same,LDL/HDL,"[1]; day 41 (after 5 weeks), 18 mg b.i.d. one week, then 9 mg b.i.d., listed as CEMMO, hydrochloride",4.0
same,Alk.-Phos,"[1]; day 41, Table II (unit not given)",126
same,FFA,[1]; [11],0.58 mM/L
same,Gluc.,[1]; [11],95 mg/dL
same,drop of blood glucose,"[1]; during the first week, 18 mg twice daily",15%
same,FFA,"[1]; end of study, after 5 weeks",580 μE/L
same,Weight,[1]; end of the study,slight weight loss
same,FFA,[1]; start of study,754 μE/L
same,IC50,κ opioid receptor,950 pM
same,IC50,μ opioid receptor,500 pM
same,IC50,δ opioid receptor,800 pM
same,IC50 κ/ IC50 δ ratio,[2],< 3
same,IC50 κ/ IC50 μ ratio,[2],< 3
same,"δ,κ,μ IC50 being within a factor of",[2],≤ 3
"C=C1CC[C@@]2(O)[C@H]3Cc4ccc(O)c5c4[C@@]2(CCN3CC2CC2)[C@H]1O5 [Nalmefene, 6-desoxy-6-methylene-naltrexone]",ALT,[3]; Day 1,72 U/L
same,AST,[3]; Day 1,31 U/L
same,Alk-phos,[3]; Day 1,70 U/L
same,"Blood Pressure, diastolic",[3]; Day 1,100
same,"Blood Pressure, systolic",[3]; Day 1,136
same,C-Peptide,[3]; Day 1,4.7 ng/mL
same,Chol. Total,[3]; Day 1,247 mg/dL
same,FFA,[3]; Day 1,0.68 mM/L
same,GG-transp,[3]; Day 1,56 U/L
same,Glucose,[3]; Day 1,138 mg/dL
same,HDL-C.,[3]; Day 1,37 mg/dL
same,HgbA1c,[3]; Day 1,6.0%
same,Insulin,[3]; Day 1,27 μU/ml
same,LD,[3]; Day 1,125 U/L
same,LDL-C.,[3]; Day 1,140 mg/dL
same,LDL/HDL,[3]; Day 1,3.78
same,TG,[3]; Day 1,270 mg/dL
same,Weight,[3]; Day 1,86 kg
same,ALT,"[3]; Day 141, 0.5 mg b.i.d.",42 U/L
same,AST,"[3]; Day 141, 0.5 mg b.i.d.",16 U/L
same,Alk-phos,"[3]; Day 141, 0.5 mg b.i.d.",72 U/L
same,"Blood Pressure, diastolic","[3]; Day 141, 0.5 mg b.i.d.",83
same,"Blood Pressure, systolic","[3]; Day 141, 0.5 mg b.i.d.",128
same,C-Peptide,"[3]; Day 141, 0.5 mg b.i.d.",2.9 ng/mL
same,Chol. Total,"[3]; Day 141, 0.5 mg b.i.d.",193 mg/dL
same,FFA,"[3]; Day 141, 0.5 mg b.i.d.",0.41 mM/L
same,GG-transp,"[3]; Day 141, 0.5 mg b.i.d.",32 U/L
same,Glucose,"[3]; Day 141, 0.5 mg b.i.d.",120 mg/dL
same,HDL-C.,"[3]; Day 141, 0.5 mg b.i.d.",40 mg/dL
same,HgbA1c,"[3]; Day 141, 0.5 mg b.i.d.",5.4%
same,Insulin,"[3]; Day 141, 0.5 mg b.i.d.",16 μU/ml
same,LD,"[3]; Day 141, 0.5 mg b.i.d.",120 U/L
same,LDL-C.,"[3]; Day 141, 0.5 mg b.i.d.",118 mg/dL
same,LDL/HDL,"[3]; Day 141, 0.5 mg b.i.d.",2.95
same,TG,"[3]; Day 141, 0.5 mg b.i.d.",175 mg/dL
same,Weight,"[3]; Day 141, 0.5 mg b.i.d.",79 kg
same,ALT Δ%,[3]; Day 141 vs Day 1,42%
same,AST Δ%,[3]; Day 141 vs Day 1,48%
same,Alk-phos Δ%,[3]; Day 141 vs Day 1,3%
same,"Blood Pressure reduction, diastolic",[3]; Day 141 vs Day 1,17 pts
same,"Blood Pressure reduction, systolic",[3]; Day 141 vs Day 1,8 pts
same,C-Peptide Δ% (reduction),[3]; Day 141 vs Day 1,38%
same,Chol. Total Δ% (reduction),[3]; Day 141 vs Day 1,22%
same,FFA Δ% (reduction),[3]; Day 141 vs Day 1,40%
same,GG-transp Δ%,[3]; Day 141 vs Day 1,43%
same,Glucose Δ% (reduction in fasting blood glucose),[3]; Day 141 vs Day 1,13%
same,HDL-C. Δ% (increase),[3]; Day 141 vs Day 1,8%
same,HgbA1c Δ% (reduction),[3]; Day 141 vs Day 1,10%
same,Insulin Δ%,[3]; Day 141 vs Day 1,43%
same,LD Δ%,[3]; Day 141 vs Day 1,4%
same,LDL-C. Δ% (reduction),[3]; Day 141 vs Day 1,16%
same,LDL/HDL Δ% (improvement),[3]; Day 141 vs Day 1,22%
same,TG Δ% (reduction),[3]; Day 141 vs Day 1,35%
same,Weight Δ% (reduction),[3]; Day 141 vs Day 1,8%
same,"δ,κ,μ IC50 being within a factor of",[2],≤ 10
same,elevated insulin concentrations,[4],reduced
O=C1CC[C@@]2(O)[C@H]3Cc4ccc(O)c5c4[C@@]2(CCN3CC2CC2)[C@H]1O5 [Naltrexone],reduction of body weight,body weight,inconsistent results
"CC(C)C[C@H]1C(=O)N2CCC[C@H]2[C@]2(O)O[C@](NC(=O)[C@@H]3C=C4c5cccc6[nH]c(Br)c(c56)C[C@H]4N(C)C3)(C(C)C)C(=O)N12 [bromocriptine, 2-bromo-α-ergocryptine]",glucose tolerance,[5],improves glucose tolerance
same,insulin values,[5],decreases insulin values toward normal
"C[C@](N)(Cc1ccc(O)cc1)C(=O)O [metyrosine, α-methyltyrosine]",Chol. Tot,[6]; 4 weeks after discontinuation,254 mg/dL
same,FFA,[6]; 4 weeks after discontinuation,747 μE/ml
same,Glucose,[6]; 4 weeks after discontinuation,122 mg/dL
same,HDL,[6]; 4 weeks after discontinuation,37 mg/dL
same,Insulin,[6]; 4 weeks after discontinuation,15 μU/ml
same,LDL,[6]; 4 weeks after discontinuation,189 mg/dL
same,LDL/HDL,[6]; 4 weeks after discontinuation,5.1
same,TG,[6]; 4 weeks after discontinuation,211 mg/dL
same,all values after discontinuation of the treatment regimen,[6]; 4 weeks following discontinuation,returned essentially to their pre-study levels
same,Chol. Tot,[6]; 8 weeks of 250 mg twice daily,209 mg/dL
same,Glucose,[6]; 8 weeks of 250 mg twice daily,110 mg/dL
same,HDL,[6]; 8 weeks of 250 mg twice daily,27 mg/dL
same,Insulin,[6]; 8 weeks of 250 mg twice daily,13 μU/ml
same,LDL,[6]; 8 weeks of 250 mg twice daily,134 mg/dL
same,LDL/HDL,[6]; 8 weeks of 250 mg twice daily,5.0
same,TG,[6]; 8 weeks of 250 mg twice daily,144 mg/dL
same,free fatty acids (FFA),[6]; 8 weeks of 250 mg twice daily,575 μE/L
same,FFA,[6]; 8 weeks of 250 mg twice daily (Table I),575 μE/ml
same,decrease of HDL,[6]; [12],34%
same,decrease of LDL,[6]; [12],24%
same,decrease of fasting blood glucose level (BGL),[6]; [12],10%
same,decrease of free fatty acids (FFA),[6]; [12],23%
same,decrease of insulin,[6]; [12],32%
same,decrease of total cholesterol (TCH),[6]; [12],30%
same,decrease of triglycerides (TG),[6]; [12],31%
same,HDL,[6]; 14 weeks of 250 mg twice daily,39 mg/dL
same,LDL,[6]; 14 weeks of 250 mg twice daily,119 mg/dL
same,LDL/HDL,[6]; 14 weeks of 250 mg twice daily,3.1
same,total reduction of LDL from the beginning of the study,[6]; 14 weeks of 250 mg twice daily,32%
same,free fatty acids (FFA),[6]; initial level,742 μE/L
same,Chol. Tot,[6]; [13],299 mg/dL
same,Glucose,[6]; [13],121 mg/dL
same,HDL,[6]; [13],41 mg/dL
same,Insulin,[6]; [13],19 μU/ml
same,LDL,[6]; [13],176 mg/dL
same,LDL/HDL,[6]; [13],4.3
same,TG,[6]; [13],208 mg/dL
same,FFA,"[6]; initial levels, before treatment (Table I)",742 μE/ml
same,body weight,[6]; week 8,slight decrease
